These results are taken from patent US20030070184A1, “LIGANDS FOR DISCOIDIN DOMAIN RECEPTOR TYROSINE KINASES AND COMPLEXES THEREOF” (priority 1999, published 2003).

The test system of test [1] is MMP-1. Put plainly: MMP-1 expression in HT 1080 cells (Western blot of conditioned media). The note with it: collagen type I 10 μg/ml, or TPA. It counts as cell-based, human. On the procedure: The full length cDNA of DDR2 was stabilely expressed in HT 1080 cells using a retroviral expression construct (pLXSN). Neomycin resistant clones were tested for DDR2 expression. Parental and DDR2 overexpressing cells were cultivated in serum free medium and stimulated with 10 μg/ml collagen type I for various periods of time. The conditioned medium was 20-fold concentrated and analyzed for the presence of MMP-1 by Western blotting with the monoclonal antibody 41-IE5 (Oncogene Research Products; Cambridge, Mass.).
(A western blot detects proteins with antibodies after separation by electrophoresis.)

The test system of test [2] is MAPK. Put plainly: MAPK activation (mobility shift) in T-47D or HT 1080-DDR2 cells. It counts as cell-based, human. Conditions: T-47D or HT 1080 overexpressing DDR2; PDGF or EGF 5 min, collagen type I overnight. On the procedure:
T-47D or HT 1080 overexpressing DDR2 cells were stimulated with PDGF or EGF for 5 min, with collagen type I overnight and with a combination of EGF/collagen or PDGF/collagen. […] Furthermore, activation of MAPK by EGF is not influenced by simultaneous activation of DDR receptors.

Test [3] concerns the target T1, DDR1b (Homo sapiens, UniProt Q08345).
T1 construct: endogenous in cells; host or cells: T-47D human mammary carcinoma cells (A431 also named)
Put plainly: Tyrosine phosphorylation of endogenous DDR1b in carcinoma cells (T-47D; A431), immunoprecipitation and anti-phosphotyrosine blot. Conditions: PDGF or EGF 5 min, collagen type I overnight. Format: cell-based. The source says:
To investigate the effects of collagen on cells that express endogenous DDR tyrosine kinases, the mammary carcinoma cell line T-47D was employed. Previous results have shown that DDR1 is highly expressed in human carcinoma cell lines, in particular, the breast cancer cell lines BT-20, MDA-MB-175 and T-47D (1) (Perez et al., 1996). […] The time course of endogenous DDR1b tyrosine phosphorylation in T-47D cells was even slower than in 293 cells, with maximal activation being achieved only after stimulation for 18 hours.
To further investigate the role of different types of collagen in the activation of DDR1 and DDR2, collagen types I, II, III and V purified from human placenta and collagen type II from bovine tracheal cartilage were obtained. To test their ability to induce receptor tyrosine phosphorylation, 293 cells overexpressing DDR1 or DDR2 were employed. […] The various types of collagen were also tested for their ability to stimulate tyrosine phosphorylation of endogenous DDR1b present in T-47D cells. For this purpose, DDR1b was immunoprecipitated from lysates of stimulated T-47D cells and analyzed by Western blotting with anti-phosphotyrosine antibodies. […] As previously shown, DDR1 tyrosine phosphorylation could also be activated by treating cells with 1 mM orthovanadate, an inhibitor of tyrosine phosphatases. Furthermore, gelatin which contains heat denatured collagen was tested for its capacity to induce DDR1b tyrosine phosphorylation.
Integrins of the type α1β1 and α2β1 have long been known to be receptors for collagen. Therefore, tests were conducted to determine if these integrins are somehow involved in the activation of DDR1b. The mammary carcinoma cell line T-47D, which endogenously expresses the b-isoform of DDR1, was used. Monoclonal antibodies directed against the extracellular domains of integrins can block binding to collagen and therefore signaling of integrins. T-47D cells were treated with antibody A2-IIE10 against α2-integrin and antibody DE9 against β1-integrin (both from Upstate Biotechnology) in the absence or presence of 10 μg/ml collagen type I overnight. DDR1b or Shc were immunoprecipitated from cellular lysates and analyzed by Western blotting with antiphosphotyrosine antibody.
DDR1b and DDR2 were transfected into 293 cells and were stimulated with 10 µg/ml mouse collagen type I for different periods of time. (FIG. 9A and FIG. 9B) Total cellular lysates were probed with antiphosphotyrosine antibody. Maximal activation is seen 90 min after stimulation of DDR1b (FIG. 9A) and DDR2 (FIG. 9B). (FIG. 9C) Human mammary carcinoma T-47D cells were cultivated on 10 cm dishes to confluence and starved in 0.5% serum overnight. Cells were stimulated with collagen type I for various periods of time and lysed. DDR1b was immunoprecipitated from the lysates and analyzed by Western blotting with antiphosphotyrosine antibody. Maximal phosphorylation of DDR1b is seen after stimulation for 18 h. An unidentified, tyrosine phosphorylated protein with an apparent molecular weight of 115 kDa is copurified in the immunoprecipitations. […] Prolonged stimulation with collagen increases the processing of DDR1b in T-47D cells, indicated by an additional 62 kDa band. (FIGS. 9E and 9F) DDR1b was immunoprecipitated from overexpressing 293 cells (E) and T-47D (FIG. 9F) cells and subjected to an in vitro kinase reaction. The incorporation of [^32P]-phosphate is monitored by SDS-PAGE followed by autoradiograpy.

Test [4] has as its target T2, Shc PTB domain (Homo sapiens, UniProt P29353).
T2 construct: the PTB domain fusion construct comprises amino acids 1-225 of human p52 Shc; made in house; host or cells: E. coli
T2 sequence (P29353 1-225 isoform P29353-2): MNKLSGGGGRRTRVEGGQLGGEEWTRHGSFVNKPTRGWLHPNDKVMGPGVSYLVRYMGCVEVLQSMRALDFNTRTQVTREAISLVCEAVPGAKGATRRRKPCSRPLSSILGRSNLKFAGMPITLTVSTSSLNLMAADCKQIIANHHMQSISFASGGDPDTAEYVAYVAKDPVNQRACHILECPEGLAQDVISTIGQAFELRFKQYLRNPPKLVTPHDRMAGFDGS
In words: Surface plasmon resonance competition: GST-Shc PTB domain binding to immobilized middle T antigen phosphopeptide. Conditions: BIAcore, soluble competing phosphopeptide; read-out: IC50, inhibition of binding of the Shc PTB domain to the middle T antigen phosphopeptide. On the procedure: Surface plasmon resonance—experiments were done with a BIAcore instrument (Pharmacia). A phosphopeptide corresponding to the NPXY sequence in the polyomavirus middle T antigen (mT) (LSLLSNPTpYSVNSK) was absorbed to the surface of a biosensor chip. Binding of soluble GST-Shc PTB domain fusion protein to the mT peptide was measured in the presence or absence of competing soluble phosphopeptides based on the sequences around Tyr 513 of DDR1b or Tyr 490 of the NGFR (HIIENPQpYFSD) (21).
Experiments were done with a BIAcore instrument (Pharmacia). A phosphopeptide corresponding to the NPXY sequence in the polyomavirus middle T antigen (LSLLSNPTpYSVMRSK) was absorbed to the surface of a biosensor chip. Binding of soluble GST-Shc PTB domain fusion protein to the middle T peptide was measured in presence or absence of competing soluble phosphopeptides based on the sequences around tyrosine 513 of DDR1b (ALLLSNPApYRLLLA) or tyrosine 490 of the NGF receptor (HIIENPQpYFSD).
In general terms: In SPR one partner is held on a chip, and binding of the other changes the refractive index at the surface.

Test [5] addresses T3, Shc PTB domain binding to DDR1b (Homo sapiens, UniProt P29353).
T3 construct: the PTB domain fusion construct comprises amino acids 1-225 of human p52 Shc; made in house; host or cells: GST-Shc PTB: E. coli; DDR1b: lysate of transiently transfected, orthovanadate-treated 293 cells
T3 sequence (P29353 1-225 isoform P29353-2): T2 sequence (P29353 1-225 isoform P29353-2)
In words: GST-Shc PTB pull-down of tyrosine phosphorylated DDR1b from 293 lysates, competition by phosphopeptide. The note with it: lysates of transfected, orthovanadate-treated 293 cells. On the procedure:
The results presented above raise the possibility that the Shc PTB domain binds to phosphorylated Tyr 513, which lies within the motif LLSNPAY in the DDR1b juxtamembrane insert. To test whether phosphorylation of Tyr 513 might form a PTB-binding site, a 14-mer phosphopeptide with the sequence ALLLSNPApYRLLLA was synthesized, corresponding to residues 505-518 of DDR1b. The ability of this phosphopeptide to bind the Shc PTB domain was analysed using a competition assay, in which the capacity of GST-Shc PTB fusion protein to bind tyrosine phosphorylated DDR1b from lysates of transfected 293 cells was measured in the presence of increasing amounts of the Tyr 513 phosphopeptide. […] To quantitate this interaction more precisely, surface plasmon resonance technology was used, in which soluble DDR1b phosphopeptide was employed to inhibit binding of the GST-Shc PTB fusion protein to a polyomavirus middle T antigen phosphopeptide, immobilized on a biosensor chip (21).
FIGS. 2A and 2B. Phosphorylation of Tyr 513 in the MCK10b (DDR1b) juxtamembrane insert forms a Shc PTB-binding site. […] Bound protein was detected by immunoblotting with antibodies to MCK10. […]

pIC50: −log10 of the molar value. Where a SMILES comes first, the peptide text is derived from it. [ ]: non-standard residue; d: D form. pY = N[C@@H](Cc1ccc(OP(=O)(O)O)cc1)C(=O)O

T1 sequence (Q08345 19-913): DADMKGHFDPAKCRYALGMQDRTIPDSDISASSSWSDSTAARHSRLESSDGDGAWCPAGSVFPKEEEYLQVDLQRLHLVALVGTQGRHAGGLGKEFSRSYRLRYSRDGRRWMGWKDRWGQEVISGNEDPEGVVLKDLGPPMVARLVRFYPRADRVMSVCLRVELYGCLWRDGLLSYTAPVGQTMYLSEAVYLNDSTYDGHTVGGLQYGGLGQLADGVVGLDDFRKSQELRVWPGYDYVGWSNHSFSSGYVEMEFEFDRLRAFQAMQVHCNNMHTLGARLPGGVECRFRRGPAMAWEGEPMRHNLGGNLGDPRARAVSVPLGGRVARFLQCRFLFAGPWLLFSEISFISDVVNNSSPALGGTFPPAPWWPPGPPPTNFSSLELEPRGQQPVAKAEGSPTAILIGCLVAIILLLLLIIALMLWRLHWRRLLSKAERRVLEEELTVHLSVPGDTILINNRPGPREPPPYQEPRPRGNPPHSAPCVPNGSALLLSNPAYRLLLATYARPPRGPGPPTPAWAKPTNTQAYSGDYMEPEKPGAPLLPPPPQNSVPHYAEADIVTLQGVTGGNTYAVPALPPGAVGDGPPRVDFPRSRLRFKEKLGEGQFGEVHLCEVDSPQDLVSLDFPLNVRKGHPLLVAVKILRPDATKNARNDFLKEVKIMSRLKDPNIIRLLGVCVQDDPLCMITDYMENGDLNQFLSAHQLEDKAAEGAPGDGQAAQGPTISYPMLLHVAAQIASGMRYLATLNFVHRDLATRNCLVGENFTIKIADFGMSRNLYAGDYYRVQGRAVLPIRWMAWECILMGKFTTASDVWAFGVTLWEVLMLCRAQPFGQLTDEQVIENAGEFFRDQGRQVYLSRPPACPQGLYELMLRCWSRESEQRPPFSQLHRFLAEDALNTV

On to `CCCCCCCCCCCCCC(=O)O[C@@H]1[C@@H](C)[C@@]2(O)[C@@H](C=C(CO)C[C@]3(O)C(=O)C(C)=C[C@@H]23)[C@@H]2C(C)(C)[C@]12OC(C)=O` [TPA, phorbol 12-myristate 13-acetate], for which, in test [1] (4 days), the “expression of MMP-1 in HT 1080 cells overexpressing DDR2” value is “induced”. Also, the “expression of MMP-1 in parental HT 1080 cells” value in test [1] was “induced”.

In the case of PDGF [reference compound], the MAPK activation entry in test [2] is on record as “not”. Moreover, in test [3], the “activation of DDR1b in T-47D cells” value was “not”.

For orientation: pIC50 means −log10 of the IC50, conventionally taken in molar units. Regarding `CC(C)C[C@H](NC(=O)[C@H](C)N)C(=O)N[C@@H](CC(C)C)C(=O)N[C@@H](CC(C)C)C(=O)N[C@@H](CO)C(=O)N[C@@H](CC(N)=O)C(=O)N1CCC[C@H]1C(=O)N[C@@H](C)C(=O)N[C@@H](Cc1ccc(OP(=O)(O)O)cc1)C(=O)N[C@@H](CCCNC(=N)N)C(=O)N[C@@H](CC(C)C)C(=O)N[C@@H](CC(C)C)C(=O)N[C@@H](CC(C)C)C(=O)N[C@@H](C)C(=O)O` [DDR1b phosphopeptide, ALLLSNPApYRLLLA] (H-ALLLSNPA[pY]RLLLA-OH; N-terminus and C-terminus assumed), the pIC50 in test [4] was approximately 6.10. Also, in test [5], the “phosphopeptide concentration for full inhibition of Shc PTB binding to DDR1b” value came to 2 µM and the “phosphopeptide concentration that inhibited binding of the Shc PTB domain to DDR1b” value was found to be 100 nM.
